Results reported in patent US6965021B2, “Feedback-resistant pyruvate carboxylase gene from corynebacterium” (Archer-Daniels-Midland Company, priority 2000, dated 2005).

How the values were obtained:
[1] = molecular target: T1, Corynebacterium glutamicum ATCC 21253 pyruvate carboxylase, wild type, SEQ ID NO:19 (Corynebacterium glutamicum, UniProt H7C7K2); test: Continuous pyruvate carboxylase assay (permeabilized cells), ATCC 21253; assay type: biochemical
T1 construct: coupled citrate synthase/DTNB assay
T1 sequence (H7C7K2 1-1140): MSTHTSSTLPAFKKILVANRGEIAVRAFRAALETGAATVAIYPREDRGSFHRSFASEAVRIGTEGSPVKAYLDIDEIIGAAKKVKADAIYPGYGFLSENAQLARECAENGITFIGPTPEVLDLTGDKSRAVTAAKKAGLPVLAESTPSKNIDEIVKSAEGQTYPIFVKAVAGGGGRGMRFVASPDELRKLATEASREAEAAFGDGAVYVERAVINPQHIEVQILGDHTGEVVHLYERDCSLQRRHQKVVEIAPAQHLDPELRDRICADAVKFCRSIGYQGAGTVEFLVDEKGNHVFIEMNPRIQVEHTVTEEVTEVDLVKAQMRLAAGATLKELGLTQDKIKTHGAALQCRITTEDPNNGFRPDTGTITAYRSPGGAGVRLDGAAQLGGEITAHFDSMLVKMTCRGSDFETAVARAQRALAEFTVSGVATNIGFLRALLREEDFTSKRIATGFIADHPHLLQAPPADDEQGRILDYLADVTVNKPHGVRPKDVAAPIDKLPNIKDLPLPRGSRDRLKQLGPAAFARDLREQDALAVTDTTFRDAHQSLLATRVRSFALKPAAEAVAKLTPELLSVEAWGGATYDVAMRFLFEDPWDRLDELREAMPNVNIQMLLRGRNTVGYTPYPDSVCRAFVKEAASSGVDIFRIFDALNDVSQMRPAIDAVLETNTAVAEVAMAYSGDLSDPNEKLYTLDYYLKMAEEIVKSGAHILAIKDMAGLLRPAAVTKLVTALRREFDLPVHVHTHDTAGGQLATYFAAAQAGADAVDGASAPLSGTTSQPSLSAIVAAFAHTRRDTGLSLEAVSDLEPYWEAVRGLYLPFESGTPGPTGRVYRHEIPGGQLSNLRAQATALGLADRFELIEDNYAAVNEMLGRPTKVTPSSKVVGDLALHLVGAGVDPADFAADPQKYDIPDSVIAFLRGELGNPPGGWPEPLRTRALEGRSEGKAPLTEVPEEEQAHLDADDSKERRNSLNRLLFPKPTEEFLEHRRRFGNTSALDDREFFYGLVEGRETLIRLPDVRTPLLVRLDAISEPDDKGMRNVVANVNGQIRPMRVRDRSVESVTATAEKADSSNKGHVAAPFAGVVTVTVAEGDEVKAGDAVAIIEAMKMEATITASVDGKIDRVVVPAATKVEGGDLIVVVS
Description: (§1) Pyruvate carboxylate and phosphoenol pyruvate carboxylate assays were performed with permeabilized cells prepared by the following method. Log phase cells were harvested by centrifugation for 10 min at 5000×g at 4° C. and washed with 20 ml of the ice-cold washing buffer (50 mM Tris/HCl [pH 6.3] containing 50 mM NaCl). The cell pellet was resuspended in an ice-cold Hepes buffer (100 mM Hepes [pH 7.5] containing 20% Glycerol) to reach a final concentration of 25 g dry cell weight/liter. Resuspended cells were permeabilized by adding 30 μl of a 10% Hexadecyltrimethyl-ammonium bromide (CTAB) (w/v) solution to 1 ml of cells to give a final concentration of 0.3% (CTAB)(v/v). […]
(§2) Pyruvate carboxylase activity was determined as a function of various concentrations of its substrates: pyruvate, bicarbonate and ATP (FIG. 3). Based on the data generated, the affinity constants of pyruvate carboxylase for its substrates were determined (Table 2).
To determine the effect of aspartate on the activity of pyruvate carboxylase, aspartate was added at different concentrations in the spectrophotometer cuvette and enzyme activities were measured. […]
(§3) Pyruvate carboxylase activity was measured in the presence of different concentrations of acetyl-CoA (FIG. 6). […]

[2] = tested on: pyruvate carboxylase from NRRL B-11474; test: Effect of aspartate, ATP and acetyl-CoA on pyruvate carboxylase activity, strain NRRL B-11474; assay type: biochemical, Corynebacterium glutamicum
Description: as §1
(§4) Pyruvate carboxylase activity was determined as a function of various concentrations of its substrates: pyruvate, bicarbonate and ATP (FIG. 3). Based on the data generated, the affinity constants of pyruvate carboxylase for its substrates were determined (Table 2). […]
(§5) Aspartate inhibits phosphoenol pyruvate carboxylase (PEPC) activity. To determine the effect of aspartate on the activity of pyruvate carboxylase, aspartate was added at different concentrations in the spectrophotometer cuvette and enzyme activities were measured. […]
as §3

[3] = tested on: pyruvate carboxylase from ATCC 21253; test: Effect of aspartate, ATP and acetyl-CoA on pyruvate carboxylase activity, strain ATCC 21253; assay type: biochemical, Corynebacterium glutamicum
Description: as §1, §4, §5, §3

[4] = molecular target: Corynebacterium glutamicum NRRL B-11474 (BF100) pyruvate carboxylase, feedback-resistant variant (M1V, E153D, A182S, A206S, H227R, A455G, D1120E), SEQ ID NO:2 (Corynebacterium glutamicum, UniProt H7C7K2, A182S/A206S/A455G/D1120E/E153D/H227R/M1V)
Description: Pyruvate carboxylate and phosphoenol pyruvate carboxylate assays were performed with permeabilized cells prepared by the following method. Log phase cells were harvested by centrifugation for 10 min at 5000×g at 4° C. and washed with 20 ml of the ice-cold washing buffer (50 mM Tris/HCl [pH 6.3] containing 50 mM NaCl). The cell pellet was resuspended in an ice-cold Hepes buffer (100 mM Hepes [pH 7.5] containing 20% Glycerol) to reach a final concentration of 25 g dry cell weight/liter. Resuspended cells were permeabilized by adding 30 μl of a 10% Hexadecyltrimethyl-ammonium bromide (CTAB) (w/v) solution to 1 ml of cells to give a final concentration of 0.3% (CTAB)(v/v).
The reaction was started at 30° C. with the addition of 10 μl of the permeabilized cell suspension, and the formation of DTNB-thiophenolate was followed over time at 412 nm. Relevant standards and controls were carried out in the same manner.
(§6) To account for the intrinsic loss of OAA during the experiment, a continuous assay was carried out by coupling the two-reaction assay to a one-reaction assay in presence of an excess of citrate synthase. The amount of permeabilized cells added in the assay was optimized to obtain a detectable activity, with the lowest possible background absorbency due to the presence of cells.
as §2
To determine the effect of aspartate on the activity of pyruvate carboxylase, aspartate was added at different concentrations in the spectrophotometer cuvette and enzyme activities were measured. As a comparison, the same experiment was carried out with PEPC in ATCC 21253 (FIG. 5).
Pyruvate carboxylase activity was measured in the presence of different concentrations of acetyl-CoA (FIG. 6). […] The effect of acetyl-CoA on citrate synthase itself was studied also.

[5] = tested on: citrate synthase; test: Effect of acetyl-CoA on citrate synthase; assay type: biochemical; conditions: acetyl-CoA on citrate synthase itself
Description: Pyruvate carboxylase activity was measured in the presence of different concentrations of acetyl-CoA (FIG. 6). Pyruvate carboxylase activity in both strains increased with increasing acetyl-CoA concentrations. The effect of acetyl-CoA on citrate synthase itself was studied also. […] Therefore, the increasing activity of pyruvate carboxylase with increasing acetyl-CoA concentration is the result of acetyl-CoA activating pyruvate carboxylase.

[6] = tested on: pyruvate carboxylase; test: Controls for the continuous pyruvate carboxylate assay; assay type: biochemical, Corynebacterium glutamicum; conditions: complete mixture + biotin (complete mixture alone 0.30)
Description: For determination of pyruvate carboxylate activity, the assay mixture contained 10 mM pyruvic acid, 14 mM KHCO3, 4 mM MgCl2, 1.75 mM ATP, 50 μmole acetyl-CoA, 0.3 mg bovine serum albumin, 0.055 U citrate synthase and 50 mM sodium phosphate buffer ([pH 7.5] containing 0.1 mg 5,5′-Dithio-bis(2-nitrobenzoic acid) (DTNB)) in a final volume of 1 ml. The reaction was started at 30° C. with the addition of 10 μl of the permeabilized cell suspension, and the formation of DTNB-thiophenolate was followed over time at 412 nm. Relevant standards and controls were carried out in the same manner.
as §6
To confirm that the continuous assay specifically detected pyruvate carboxylase activity, controls were carried out by assaying for activity in absence of each reaction component (Table 1). Using these controls, the detected activity was determined to be a carboxylation reaction requiring pyruvate, Mg and ATP.

[7] = tested on: CC(=O)C(=O)O; test: purified protein, by the assay type; conditions: other: permeabilized cells, pH 7.5, 30° C.
Description: (§7) To account for the intrinsic loss of OAA during the experiment, a continuous assay was carried out by coupling the two-reaction assay to a one-reaction assay in presence of an excess of citrate synthase. […]

[8] = tested on: Nc1ncnc2c1ncn2[C@@H]1O[C@H](COP(=O)(O)OP(=O)(O)OP(=O)(O)O)[C@@H](O)[C@H]1O; test: purified protein, by the assay type; conditions: other: permeabilized cells, pH 7.5, 30° C.
Description: as §7

[9] = tested on: pyruvate carboxylase; test: Continuous pyruvate carboxylase assay with permeabilized cells: affinity constants for substrates and basal activity; assay type: biochemical, Corynebacterium glutamicum; conditions: NRRL B-11474 versus ATCC 21253
[10] = ATP above a concentration of 2 mM
[11] = different concentrations of acetyl-CoA

Question: How did the “inhibition of pyruvate carboxylase activity by ATP” value [1, 10] turn out when `Nc1ncnc2c1ncn2[C@@H]1O[C@H](COP(=O)(O)OP(=O)(O)OP(=O)(O)O)[C@@H](O)[C@H]1O` [ATP, adenosine triphosphate] was run?
Answer: inhibited

Question: And the “ATP concentration above which activity is inhibited” value [2]?
Answer: > 2 mM

Question: What about the “ATP concentration above which activity is inhibited” value [3] of the same molecule?
Answer: > 2 mM

Question: And the “inhibition of pyruvate carboxylase activity by ATP” value [4, 10]?
Answer: inhibited

Question: For `O=C(O)O` [HCO3−, bicarbonate], which Km ([1]; permeabilized cells, pH 7.5, 30° C., read-out: KM(HCO3−)) is on record?
Answer: 2900 ± 800 µM

Question: What about the Km ([4]; read-out: KM(HCO3−), permeabilized cells, pH 7.5, 30° C.) of the same molecule?
Answer: 14400 ± 4000 µM

Question: How did the “pyruvate carboxylase activity with increasing acetyl-CoA concentrations” value [2, 11] turn out when `CC(=O)SCCNC(=O)CCNC(=O)[C@H](O)C(C)(C)COP(=O)(O)OP(=O)(O)OC[C@H]1O[C@@H](n2cnc3c(N)ncnc32)[C@H](O)[C@@H]1OP(=O)(O)O` [acetyl-CoA] was run?
Answer: increased

Question: What about the “pyruvate carboxylase activity with increasing acetyl-CoA concentrations” value [3, 11] of the same molecule?
Answer: increased

Question: And the Km [5]?
Answer: 10 µM

Question: `O=C(O)CCCC[C@@H]1SC[C@@H]2NC(=O)N[C@@H]21` [biotin] was tested. Which “Detected Activity” value [6] did it give?
Answer: 0.35 Abs/min.mg DCW

Question: Which Km [7] does the source give for “Corynebacterium glutamicum NRRL B-11474 (BF100) pyruvate carboxylase, feedback-resistant variant (M1V, E153D, A182S, A206S, H227R, A455G, D1120E), SEQ ID NO:2 (Corynebacterium glutamicum ATCC 13032; A182S/A206S/A455G/D1120E/E153D/H227R/M1V)” here?
Answer: 1300 ± 300 µM

Question: And the Km [8]?
Answer: 400 ± 100 µM

B1: Pyc: feedback-resistant pyruvate carboxylase (SEQ ID NO:2) from Corynebacterium glutamicum NRRL B-11474, also known as BF100 (protein)
chain: MTAITLGGLLLKGIITLVSTHTSSTLPAFKKILVANRGEIAVRAFRAALETGAATVAIYPREDRGSFHRSFASEAVRIGTEGSPVKAYLDIDEIIGAAKKVKADAIYPGYGFLSENAQLARECAENGITFIGPTPEVLDLTGDKSRAVTAAKKAGLPVLAESTPSKNIDDIVKSAEGQTYPIFVKAVAGGGGRGMRFVSSPDELRKLATEASREAEAAFGDGSVYVERAVINPQHIEVQILGDRTGEVVHLYERDCSLQRRHQKVVEIAPAQHLDPELRDRICADAVKFCRSIGYQGAGTVEFLVDEKGNHVFIEMNPRIQVEHTVTEEVTEVDLVKAQMRLAAGATLKELGLTQDKIKTHGAALQCRITTEDPNNGFRPDTGTITAYRSPGGAGVRLDGAAQLGGEITAHFDSMLVKMTCRGSDFETAVARAQRALAEFTVSGVATNIGFLRALLREEDFTSKRIATGFIGDHPHLLQAPPADDEQGRILDYLADVTVNKPHGVRPKDVAAPIDKLPNIKDLPLPRGSRDRLKQLGPAAFARDLREQDALAVTDTTFRDAHQSLLATRVRSFALKPAAEAVAKLTPELLSVEAWGGATYDVAMRFLFEDPWDRLDELREAMPNVNIQMLLRGRNTVGYTPYPDSVCRAFVKEAASSGVDIFRIFDALNDVSQMRPAIDAVLETNTAVAEVAMAYSGDLSDPNEKLYTLDYYLKMAEEIVKSGAHILAIKDMAGLLRPAAVTKLVTALRREFDLPVHVHTHDTAGGQLATYFAAAQAGADAVDGASAPLSGTTSQPSLSAIVAAFAHTRRDTGLSLEAVSDLEPYWEAVRGLYLPFESGTPGPTGRVYRHEIPGGQLSNLRAQATALGLADRFELIEDNYAAVNEMLGRPTKVTPSSKVVGDLALHLVGAGVDPADFAADPQKYDIPDSVIAFLRGELGNPPGGWPEPLRTRALEGRSEGKAPLTEVPEEEQAHLDADDSKERRNSLNRLLFPKPTEEFLEHRRRFGNTSALDDREFFYGLVEGRETLIRLPDVRTPLLVRLDAISEPDDKGMRNVVANVNGQIRPMRVRDRSVESVTATAEKADSSNKGHVAAPFAGVVTVTVAEGDEVKAGDAVAIIEAMKMEATITASVDGKIERVVVPAATKVEGGDLIVVVS
Question: Which “basal pyruvate carboxylase activity relative to ATCC 21253” value [9] does the source give for B1 here?
Answer: about 5 times
